Reference: US11248006B2, “Macrocyclic derivative of pyrazol[3,4-d]pyrimidin-3-one, pharmaceutical composition and use thereof” (SHANGHAI DE NOVO PHARMATECH CO., LTD., priority 2017, dated 2022)

How the values were obtained:
[1] = tested on: Human osteosarcoma cell line MG63; test: Cell proliferation assay (CCK-8 cell viability); type: cell-based; details: CCK-8, 72 hours incubation
Protocol: In the present disclosure, cell assays were used to assess the biological activity of the compound. Human osteosarcoma cell line MG63 (ATCC CRL-1427) was cultured in a 96-well plate of Dulbecco's Modified Eagle's medium, supplemented with 10% fetal bovine serum and 1% (v/v) L-glutamine, and the cultivation environment was 37° C. and 5% CO2. Compound concentrations ranged from 4.5 nM to 30 μM. The Wee1 inhibitor stock solution was dissolved in DMSO, added to the medium with an indicated concentration and incubated for 72 hours. Negative control cells were only treated with vehicle. In some assays, a known Wee1 inhibitor was added as a positive control. Cell viability was measured using a Cell Counting Kit-8 (CCK-8, Sigma-Aldrich) under the instruction of the product specification. The data was analyzed using Graphpad software to obtain a fitted curve of IC50 values against the compounds.

[2] = target: Wee1 (Homo sapiens (Human), UniProt P30291); test: Wee1 enzyme catalysis assay (ATP-Glo Max kinase luminescence detection kit); type: biochemical; details: Wee1 enzymatic activity, 10 μM ATP, Poly (Lys, Tyr) substrate, 30° C. for 50 minutes
Wee1, sequence (P30291 whole entry): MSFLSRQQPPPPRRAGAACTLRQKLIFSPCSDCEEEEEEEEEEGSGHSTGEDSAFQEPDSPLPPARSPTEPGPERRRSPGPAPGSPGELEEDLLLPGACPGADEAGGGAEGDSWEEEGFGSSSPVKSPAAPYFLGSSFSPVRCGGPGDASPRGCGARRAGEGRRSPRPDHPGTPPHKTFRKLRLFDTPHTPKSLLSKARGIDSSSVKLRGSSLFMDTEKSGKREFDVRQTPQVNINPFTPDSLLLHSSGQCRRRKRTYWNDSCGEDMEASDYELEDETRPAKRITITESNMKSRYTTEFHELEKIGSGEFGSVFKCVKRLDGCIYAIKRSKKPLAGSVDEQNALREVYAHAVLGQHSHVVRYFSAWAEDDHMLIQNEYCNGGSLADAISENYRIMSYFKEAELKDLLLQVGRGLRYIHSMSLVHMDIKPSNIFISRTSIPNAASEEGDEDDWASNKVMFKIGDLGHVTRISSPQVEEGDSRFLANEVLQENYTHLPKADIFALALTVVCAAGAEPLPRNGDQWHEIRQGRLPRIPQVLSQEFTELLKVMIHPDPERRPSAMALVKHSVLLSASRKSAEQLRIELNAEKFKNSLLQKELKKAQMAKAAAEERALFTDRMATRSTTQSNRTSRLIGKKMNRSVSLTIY
Protocol: In the present disclosure, Wee1 enzyme catalysis assay was carried out using the ATP-Glo Max kinase luminescence detection kit (Promega). Kinase activity was assessed by quantitative detection of the amount of ATP retained in the solution following the kinase reaction. The luminescent signal in the assay is proportional to the amount of ATP and inversely proportional to the kinase activity. The concentration of the compound in the assay ranged from 0.5 nM to 30 μM. The compound was dissolved in 10% DMSO, and 5 μL of the solution was added to 50 μL of the reaction, and the concentration of DMSO in the final reaction was 1%. The reaction was carried out at 30° C. for 50 minutes. 40 mM trishydroxymetyl aminomethane, pH 7.4, 10 mM MgCl2, 0.1 mg/ml BSA, 2 mM DTT, 0.1 mg/ml Poly (Lys, Tyr) substrate, 10 μM ATP and Wee1 were contained in the reaction mixture. After the enzymatic reaction, 50 μL of ATP-Glo Max kinase luminescence detection assay solution (Promega) was added and incubated for 15 minutes at room temperature. The luminescent signal was measured using a microplate reader. In some assays, a known Wee1 inhibitor was added as a positive control. Luminance data was analyzed using Graphpad software. The difference between the luminescence intensity in the absence of Wee1 and the luminescence intensity in the presence of Wee1 was defined as 100% activity (Lut−Luc). Using the luminescence intensity signal (Lu) in the presence of the compound, the % activity was calculated as follows: % Activity={(Lut−Lu)/(Lut−Luc)}×100%, wherein, Lu=luminous intensity of the compound Non-linear regression analysis was employed to plot the dose-effect curve of % activity value and the corresponding concentrations for the series of compounds. The equation is Y=B+(TB)/1+10((Log EC50−X)×Hill Slope), Y=% activity, B=minimum activity percentage, T=maximum activity percentage, X=logarithm of compound and Hill slope=slope factor or Hill coefficient. The IC50 value was determined by the concentration of a compound that is required to obtain 50% of the maximum effect.

SMILES	IC50 ([1]; Homo sapiens, MG-63, 72 h)	IC50 [2]	IC50 [1]
C=CCn1c(=O)c2cnc(Nc3ccc(N4CCN(C)CC4)cc3)nc2n1-c1cccc(C(C)(C)O)n1 [AZD1775, 2-allyl-1-(6-(2-hydroxypropan-2-yl)pyridin-2-yl)-6-((4-(4-methylpiperazin-1-yl)phenyl)amino)-1H-pyrazolo[3,4-d]pyrimidin-3 (2H)-one, reference compound]	0.785 µM	–	–
CN1CCN(c2ccc(Nc3ncc4c(=O)n5n(c4n3)-c3cccc(n3)OCCCC/C=C/C5)cc2)CC1 [Compound 1-1-1]	–	0.0067 µM	2.41 µM
CN1CCN(c2ccc(Nc3ncc4c(=O)n5n(c4n3)-c3cccc(n3)OCCC/C=C\C5)cc2)CC1 [Compound 1-1-2]	–	0.032 µM	–
CN1CCN(c2ccc(Nc3ncc4c(=O)n5n(c4n3)-c3cccc(n3)OCC/C=C\C5)cc2)CC1 [Compound 1-1-3]	–	0.0073 µM	–
CN1CCN(c2ccc(Nc3ncc4c(=O)n5n(c4n3)-c3cccc(n3)OCCOC/C=C/C5)cc2)CC1 [Compound 1-1-4]	–	0.0302 µM	–
CN1CCN(c2ccc(Nc3ncc4c(=O)n5n(c4n3)-c3cccc(n3)OCC/C=C\C5)cc2CO)CC1 [Compound 1-1-5]	–	0.0061 µM	–
COc1cc(Nc2ncc3c(=O)n4n(c3n2)-c2cccc(n2)OCC/C=C\C4)ccc1N1CCN(C)CC1 [Compound 1-1-6]	–	0.0068 µM	–
CN1Cc2cc(Nc3ncc4c(=O)n5n(c4n3)-c3cccc(n3)OCC/C=C\C5)ccc2C2(CC2)C1 [Compound 1-2-1]	0.593 µM	0.0054 µM	–
CN1Cc2cc(Nc3ncc4c(=O)n5n(c4n3)-c3cccc(n3)OCCCC/C=C\C5)ccc2C2(CC2)C1 [Compound 1-2-2]	–	0.0103 µM	–
CN1Cc2cc(Nc3ncc4c(=O)n5n(c4n3)-c3cccc(n3)OCC/C=C\C5)ccc2C(C)(C)C1 [Compound 1-3-1]	–	0.0081 µM	–
CN1Cc2ccc(Nc3ncc4c(=O)n5n(c4n3)-c3cccc(n3)OCCOC/C=C/C5)cc2C(C)(C)C1 [Compound 1-3-2]	–	0.0238 µM	–
CC(=O)N1CCCCC=CCn2c(=O)c3cnc(Nc4ccc(N5CCN(C)CC5)cc4)nc3n2-c2cccc1n2 [Compound 2-1-1]	–	0.0752 µM	–
CC(=O)N1CCCCC=CCn2c(=O)c3cnc(Nc4ccc(N5CCN(C)CC5)cc4)nc3n2-c2cccc1n2 [Compound 2-1-2]	–	0.0625 µM	–
CC(=O)N1CCC/C=C\Cn2c(=O)c3cnc(Nc4ccc5c(c4)CN(C)CC54CC4)nc3n2-c2cccc1n2 [Compound 2-2-1]	0.439 µM	0.0037 µM	–
CC(=O)N1CC/C=C\Cn2c(=O)c3cnc(Nc4ccc5c(c4)CN(C)CC5(C)C)nc3n2-c2cccc1n2 [Compound 2-3-1]	–	0.0107 µM	–
CC(=O)N1CCC/C=C\Cn2c(=O)c3cnc(Nc4ccc5c(c4)CN(C)CC5(C)C)nc3n2-c2cccc1n2 [Compound 2-3-2]	–	0.0164 µM	–
CN1Cc2cc(Nc3ncc4c(=O)n5n(c4n3)-c3ccc4c(n3)N(CCCC/C=C/C5)C(=O)CO4)ccc2C2(CC2)C1 [Compound 3-2-1]	–	0.021 µM	–
CCN1Cc2cc(Nc3ncc4c(=O)n5n(c4n3)-c3ccc4c(n3)N(CCC/C=C\C5)C(=O)CO4)ccc2C2(CC2)C1 [Compound 3-2-5]	–	0.0077 µM	–
O=C1COc2ccc3nc2N1CCC/C=C\Cn1c(=O)c2cnc(Nc4ccc5c(c4)CN(CC(F)F)CC54CC4)nc2n1-3 [Compound 3-2-8]	–	0.009 µM	–
CN1CCN(c2ccc(Nc3ncc4c(=O)n5n(c4n3)-c3ccc4c(n3)N(CCC/C=C\C5)C(=O)CO4)cc2CO)CC1 [Compound 3-3-1]	–	0.0055 µM	0.295 µM
CC1CN(c2ccc(Nc3ncc4c(=O)n5n(c4n3)-c3ccc4c(n3)N(CCC/C=C\C5)C(=O)CO4)cc2)CCN1C (stereo not shown) [Compound 3-3-3]	–	0.0057 µM	–
CN1C[C@@H]2C[C@H]1CN2c1ccc(Nc2ncc3c(=O)n4n(c3n2)-c2ccc3c(n2)N(CCC/C=C\C4)C(=O)CO3)cc1 [Compound 3-3-4]	–	0.0086 µM	–
COc1cc(Nc2ncc3c(=O)n4n(c3n2)-c2ccc3c(n2)N(CCC/C=C\C4)C(=O)CO3)ccc1N1CCN(C)C(C)C1 (stereo not shown) [Compound 3-3-5]	–	0.0048 µM	–
CN1CCN(Cc2ccc(Nc3ncc4c(=O)n5n(c4n3)-c3ccc4c(n3)N(CCC/C=C\C5)C(=O)CO4)cc2)CC1 [Compound 3-3-6]	–	0.0248 µM	–

SMILES	IC50 ([1]; Homo sapiens, MG-63, 72 h)	IC50 [2]	IC50 [1]
CN1CCN(c2ccc(Nc3ncc4c(=O)n5n(c4n3)-c3ccc4c(n3)N(CCC/C=C\C5)C(=O)CO4)cc2F)CC1 [Compound 3-3-8]	–	0.0076 µM	–
Cc1cc(Nc2ncc3c(=O)n4n(c3n2)-c2ccc3c(n2)N(CCCC=CC4)C(=O)CO3)ccc1N1CCN(C)CC1 [Compound 3-3-9]	–	0.0063 µM	–
O=C1COc2ccc3nc2N1CCC/C=C\Cn1c(=O)c2cnc(Nc4ccc(N5CCN6CCCC6C5)cc4)nc2n1-3 (stereo not shown) [Compound 3-3-10]	–	0.0088 µM	–
COc1cc(Nc2ncc3c(=O)n4n(c3n2)-c2ccc3c(n2)N(CCC/C=C/C4)C(=O)CO3)ccc1N1CCN(C)CC1 [Compound 3-3-11]	–	0.0065 µM	–
CN1CCN(C)c2ccc(Nc3ncc4c(=O)n5n(c4n3)-c3ccc4c(n3)N(CCC/C=C\C5)C(=O)CO4)cc2C1 [Compound 3-4-1]	–	0.0094 µM	–
CN1CCOc2ccc(Nc3ncc4c(=O)n5n(c4n3)-c3ccc4c(n3)N(CCC/C=C\C5)C(=O)CO4)cc2C1 [Compound 3-4-2]	–	0.0082 µM	–
CN1Cc2cc(Nc3ncc4c(=O)n5n(c4n3)-c3ccc4c(n3)N(CCC/C=C\C5)C(=O)CO4)ccc2C1=O [Compound 3-6-1]	–	0.0162 µM	–
CN(C)CCn1ccc2cc(Nc3ncc4c(=O)n5n(c4n3)-c3ccc4c(n3)N(CCC/C=C\C5)C(=O)CO4)ccc21 [Compound 3-7-1]	–	0.0076 µM	–
CN1CCCC(n2ccc3cc(Nc4ncc5c(=O)n6n(c5n4)-c4ccc5c(n4)N(CCC/C=C\C6)C(=O)CO5)ccc32)C1 (stereo not shown) [Compound 3-7-2]	–	0.0182 µM	–
COC(=O)N1CCC(n2ccc3cc(Nc4ncc5c(=O)n6n(c5n4)-c4ccc5c(n4)N(CCC/C=C\C6)C(=O)CO5)ccc32)CC1 [Compound 3-7-4]	–	0.0366 µM	–
CC(C)N1CCC(n2ncc3cc(Nc4ncc5c(=O)n6n(c5n4)-c4ccc5c(n4)N(CCC/C=C\C6)C(=O)CO5)ccc32)CC1 [Compound 3-7-14]	–	0.0065 µM	–
CN1CCN(c2cc(Nc3ncc4c(=O)n5n(c4n3)-c3ccc4c(n3)N(CCC/C=C\C5)C(=O)CO4)cc3ccoc23)CC1 [Compound 3-7-17]	0.27 µM	–	–
CN1CCN(c2ccc3cc(Nc4ncc5c(=O)n6n(c5n4)-c4ccc5c(n4)N(CCC/C=C\C6)C(=O)CO5)ccc3c2)CC1 [Compound 3-8-1]	0.16 µM	–	–
CN1Cc2cc(Nc3ncc4c(=O)n5n(c4n3)-c3ccc4c(c3)N(CCC/C=C\C5)C(=O)CO4)ccc2C2(CC2)C1 [Compound 4-1-1]	–	0.0051 µM	–
COc1cc(Nc2ncc3c(=O)n4n(c3n2)-c2ccc3c(n2)N(CCC/C=C\C4)C(=O)CC3)ccc1N1CCN(C)CC1 [Compound 5-1-1]	–	0.0075 µM	–
CN(C)CCn1ccc2cc(Nc3ncc4c(=O)n5n(c4n3)-c3cccc(n3)C(C)(O)CCC/C=C\C5)ccc21 (stereo not shown) [Compound 6-1-1]	–	0.155 µM	–
CN1Cc2cc(Nc3ncc4c(=O)n5n(c4n3)-c3ccc4c(n3)N(CCC/C=C\C5)C(=O)C(C)(C)O4)ccc2C2(CC2)C1 [Compound 7-1-1]	–	0.0129 µM	–
CN1Cc2cc(Nc3ncc4c(=O)n5n(c4n3)-c3ccc4c(n3)N(CCO4)C(=O)CC/C=C\C5)ccc2C(C)(C)C1 [Compound 8-1-1]	–	0.0201 µM	–
CN1Cc2cc(Nc3ncc4c(=O)n5n(c4n3)-c3ccc4c(n3)N(CCC/C=C\C5)CCO4)ccc2C2(CC2)C1 [Compound 8-2-1]	–	0.0116 µM	–
COc1cc(Nc2ncc3c(=O)n4n(c3n2)-c2ccc3c(n2)N(CCC/C=C\C4)CCO3)ccc1N1CCN(C)CC1 [Compound 8-2-2]	–	0.013 µM	–
CN1Cc2cc(Nc3ncc4c(=O)n5n(c4n3)-c3ccc4c(n3)N(CCO4)C(=O)OC/C=C\C5)ccc2C2(CC2)C1 [Compound 8-3-1]	–	0.0163 µM	–
CN1Cc2cc(Nc3ncc4c(=O)n5n(c4n3)-c3cccc(n3)N(C)CCC/C=C\C5)ccc2C(C)(C)C1 [Compound 9-1-1]	–	0.0118 µM	–
COc1cc(Nc2ncc3c(=O)n4n(c3n2)-c2ccc3c(n2)N(CCCC#CC4)C(=O)CO3)ccc1N1CCN(C)CC1 [Compound 10-1-3]	–	0.0084 µM	–
COc1cc(Nc2ncc3c(=O)n4n(c3n2)-c2ccc3c(n2)N(CCC#CC4)C(=O)CO3)ccc1N1CCN(C)CC1 [Compound 10-1-5]	–	0.0117 µM	–
